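Grown in 96-well plates, cells were treated for 48 hours with each compound at five concentrations. Insufficient inhibition: endpoint recorded as highest concentration tested. GI50 marks 50% less growth.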 Calls of active or inactive are those of the source. Rule as the data show it: active = GI50 up to about 1.1 µM and inactive = higher.
Key:
Experiment in all cases: NCI tumour cell line growth inhibition, 48 h
786-0 = test system: 786-0
A498 = test system: A498
A549 = test system: A549
ACHN = test system: ACHN
BT-549 = test system: BT-549
CAKI-1 = test system: CAKI-1
COLO 205 = test system: COLO 205
DU-145 = test system: DU-145
EKVX = test system: EKVX
HCT-116 = test system: HCT-116
HCT-15 = test system: HCT-15
HL-60 = test system: HL-60
HOP-62 = test system: HOP-62
HOP-92 = test system: HOP-92
HT-29 = test system: HT-29
Hs-578T = test system: Hs-578T
IGROV-1 = test system: IGROV-1
K562 = test system: K562
KM12 = test system: KM12
LOX IMVI = test system: LOX IMVI
M14 = test system: M14
MCF7 = test system: MCF7
MDA-MB-231 = test system: MDA-MB-231
MDA-MB-435 = test system: MDA-MB-435
MDA-N = test system: MDA-N
MOLT-4 = test system: MOLT-4
Malme-3M = test system: Malme-3M
NCI-H226 = test system: NCI-H226
NCI-H23 = test system: NCI-H23
NCI-H460 = test system: NCI-H460
NCI-H522 = test system: NCI-H522
NCI/ADR-RES = test system: NCI/ADR-RES
OVCAR-3 = test system: OVCAR-3
OVCAR-4 = test system: OVCAR-4
OVCAR-5 = test system: OVCAR-5
OVCAR-8 = test system: OVCAR-8
PC-3 = test system: PC-3
RPMI-8226 = test system: RPMI-8226
RXF 393 = test system: RXF 393
SF-268 = test system: SF-268
SF-295 = test system: SF-295
SF-539 = test system: SF-539
SK-MEL-28 = test system: SK-MEL-28
SK-MEL-2 = test system: SK-MEL-2
SK-MEL-5 = test system: SK-MEL-5
SK-OV-3 = test system: SK-OV-3
SN12C = test system: SN12C
SNB-19 = test system: SNB-19
SR = test system: SR
SW-620 = test system: SW-620
T47D = test system: T47D
TK-10 = test system: TK-10
U-251 = test system: U-251
UACC-257 = test system: UACC-257
UACC-62 = test system: UACC-62
UO-31 = test system: UO-31
CCRF-CEM = test system: CCRF-CEM
HCC 2998 = test system: HCC 2998
SNB-75 = test system: SNB-75

Measured: GI50

CN1CCc2nc(N)nc(-c3nc(N)nc4c3CN(C)CC4)c2C1
inactive: 786-0 > 100 µM | A498 > 100 µM | A549 > 100 µM | ACHN > 100 µM | BT-549 > 100 µM | CAKI-1 > 100 µM | COLO 205 > 100 µM | DU-145 > 100 µM | EKVX > 100 µM | HCT-116 > 100 µM | HL-60 > 100 µM | HOP-62 > 100 µM | HOP-92 > 100 µM | HT-29 > 100 µM | Hs-578T > 100 µM | IGROV-1 > 100 µM | K562 75.9 µM | KM12 > 100 µM | LOX IMVI > 100 µM | M14 > 100 µM | MCF7 > 100 µM | MDA-MB-231 > 100 µM | MDA-MB-435 > 100 µM | MDA-N > 100 µM | MOLT-4 > 100 µM | Malme-3M > 100 µM | NCI-H226 > 100 µM | NCI-H23 > 100 µM | NCI-H460 > 100 µM | NCI-H522 > 100 µM | NCI/ADR-RES > 100 µM | OVCAR-3 > 100 µM | OVCAR-4 > 100 µM | OVCAR-5 > 100 µM | OVCAR-8 > 100 µM | PC-3 > 100 µM | RPMI-8226 > 100 µM | RXF 393 > 100 µM | SF-268 > 100 µM | SF-295 > 100 µM | SF-539 > 100 µM | SK-MEL-28 > 100 µM | SK-MEL-2 > 100 µM | SK-MEL-5 > 100 µM | SK-OV-3 > 100 µM | SN12C > 100 µM | SNB-19 > 100 µM | SR 33 µM | SW-620 > 100 µM | T47D > 100 µM | TK-10 > 100 µM | U-251 > 100 µM | UACC-257 > 100 µM | UACC-62 > 100 µM | UO-31 > 100 µM
> 100 µM: HCT-15

ON[C@@H]1C=C[C@H](n2cnc3c(NC4CC4)ncnc32)C1
> 100 µM: HCT-15
inactive: 786-0 > 100 µM | A498 > 100 µM | A549 > 100 µM | ACHN > 100 µM | BT-549 > 100 µM | CAKI-1 > 100 µM | CCRF-CEM > 100 µM | COLO 205 > 100 µM | DU-145 > 100 µM | EKVX > 100 µM | HCC 2998 > 100 µM | HCT-116 86.5 µM | HOP-62 > 100 µM | HOP-92 > 100 µM | HT-29 > 100 µM | Hs-578T > 100 µM | IGROV-1 94.4 µM | K562 > 100 µM | KM12 > 100 µM | LOX IMVI 87.5 µM | M14 > 100 µM | MCF7 > 100 µM | MDA-MB-231 > 100 µM | MDA-MB-435 > 100 µM | MDA-N > 100 µM | MOLT-4 > 100 µM | Malme-3M > 100 µM | NCI-H226 > 100 µM | NCI-H23 > 100 µM | NCI-H460 > 100 µM | NCI-H522 > 100 µM | NCI/ADR-RES > 100 µM | OVCAR-3 > 100 µM | OVCAR-4 > 100 µM | OVCAR-5 > 100 µM | OVCAR-8 > 100 µM | PC-3 > 100 µM | RPMI-8226 > 100 µM | RXF 393 > 100 µM | SF-268 > 100 µM | SF-295 > 100 µM | SF-539 > 100 µM | SK-MEL-28 > 100 µM | SK-MEL-2 > 100 µM | SK-MEL-5 > 100 µM | SK-OV-3 > 100 µM | SN12C > 100 µM | SNB-19 > 100 µM | SNB-75 > 100 µM | SR 88.3 µM | SW-620 > 100 µM | T47D > 100 µM | TK-10 > 100 µM | U-251 > 100 µM | UACC-257 > 100 µM | UACC-62 > 100 µM | UO-31 > 100 µM

Source: ChEMBL document CHEMBL1201862, “PubChem BioAssay data set” (2004)
